Laboratory results: patent US12226405B2, “Compounds and compositions for inhibiting the activity of HIF2-alpha and their methods of use” (Novartis AG, priority 2020, dated 2025)

Tested on: 786-O subcutaneous xenografts
Assay: In vivo 786-O tumor growth model
Conditions: female nude mice, 30 mg/kg p.o. qd, 21 days
Method: Female nude mice bearing 786-O subcutaneous xenografts were treated with Example 31 at 30 mg/kg p.o. qd or vehicle control. Treatments started 34 days post tumor inoculation and lasted 21 days. Values are provided as mean±SEM with a sample size of n=6 mice per group. The initial tumor volume at day 0 was approximately 260 mm^3.
Experiments were performed in female nude Crl:NU(NCr)-Foxnlnu-Homozygous mice (Charles River, Germany). Animals were 6-9 weeks of age at time of application of the compound. Animals were housed under Optimized Hygienic Conditions in Makrolon type III cages (max. 5 animals per cage) with free access to food and water. […]
Cell line and cell culture: 786-O and SKRC-01 cells were grown in 500 ml RPMI1640 Medium+5 ml L-Glutamine+50 ml FCS+5 ml Sodium Pyruvate+5 ml HEPES and incubated at 37° C. in a 5% CO2 humidified atmosphere. Cells were harvested with trypsin-EDTA, re-suspended in culture medium (with additives) and counted with a Casy® system. […]
Evaluation of antitumor activity: Tumor volumes were measured with calipers and determined according to the formula: length×diameter^2×π/6. In addition to presenting changes of tumor volumes over the course of treatments, antitumor activity is expressed as T/C % (mean change of tumor volume of treated animals/mean change of tumor volume of control animals)×100. […]

**Q.** Which anti-tumor activity does the source give for `FC(F)OC1=CC(C(F)(F)F)=CN2C[C@@]3(CCC(F)(F)c4c3ccnc4Cl)N=C12` [Example 31, (S)-1′-chloro-8-(difluoromethoxy)-8′,8′-difluoro-6-(trifluoromethyl)-7′,8′-dihydro-3H,6′H-spiro[imidazo[1,2-a]pyridine-2,5′-isoquinoline]] here?
**A.** demonstrated
